Assay results published in patent US20080176862A1, “New Compounds 617” (ASTRAZENECA AB, priority 2006, published 2008).
Where a name gives a salt, the structure may show the parent alone.

Biological target: T1, human β-Secretase (soluble part, AA1-AA460; sBACE-Fc) (Homo sapiens, UniProt P56817)
T1 construct: The soluble part of the human β-Secretase (AA1-AA460) was cloned into the ASP2-Fc10-1-IRES-GFP-neoK mammalian expression vector; made in house
Test: TR-FRET assay
Type: biochemical
Details: substrate (Europium)CEVNLDAEFK(Qsy7) 100 nM, pH 4.5, 15 min at RT; read-out: IC50 (nM) in TR-FRET assay
Method: The enzyme used in the IGEN Cleavage-, Fluorescent-, TR-FRET- and BiaCore assays is described as follows:
The soluble part of the human β-Secretase (AA1-AA460) was cloned into the ASP2-Fc10-1-IRES-GFP-neoK mammalian expression vector. The gene was fused to the Fc domain of IgG1 (affinity tag) and stably cloned into HEK 293 cells. Purified sBACE-Fc is stored in Tris buffer, pH 9.2 and has a purity of 95%.
Enzyme was diluted to 6 μg/mL and the substrate (Europium)[…](Qsy7) to 200 nM in reaction buffer (NaAcetate, chaps, triton x-100, EDTA pH 4.5). Compounds were diluted to the desired concentration in dimethyl sulfoxide (final dimethyl sulfoxide concentration in assay is 5%). […] Enzyme (9 μL) and 1 μL of compound in dimethyl sulfoxide was added to the plate, mixed and pre-incubated for 10 min. Substrate (10 μL) was added and the reaction proceeded in the dark for 15 min at RT. The reaction was stopped with the addition of 7 μL NaAcetate, pH 9. The fluorescence of the product was measured on a Victor II plate reader with an excitation wavelength of 340 nm and an emission wavelength of 615 nm. […] The dimethyl sulfoxide control defined the 100% activity level and 0% activity was defined by exclusion of the enzyme (using reaction buffer instead).

T1 sequence (P56817 22-460): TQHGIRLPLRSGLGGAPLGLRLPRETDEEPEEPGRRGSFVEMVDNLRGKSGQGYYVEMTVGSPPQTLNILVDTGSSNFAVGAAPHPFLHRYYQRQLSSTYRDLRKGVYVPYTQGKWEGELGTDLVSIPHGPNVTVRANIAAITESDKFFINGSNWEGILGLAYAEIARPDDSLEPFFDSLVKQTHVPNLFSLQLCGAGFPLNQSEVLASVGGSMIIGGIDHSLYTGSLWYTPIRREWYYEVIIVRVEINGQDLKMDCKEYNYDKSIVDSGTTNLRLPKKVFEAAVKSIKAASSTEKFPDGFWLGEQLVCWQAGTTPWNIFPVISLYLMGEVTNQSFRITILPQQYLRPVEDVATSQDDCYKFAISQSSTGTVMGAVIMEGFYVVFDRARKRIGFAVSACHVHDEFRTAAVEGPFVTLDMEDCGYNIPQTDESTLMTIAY

| SMILES | IC50 |
| --- | --- |
| CN1C(=O)C(c2ccc(OS(=O)(=O)C(F)(F)F)cc2)(c2ccc(F)c(-c3cncs3)c2)N=C1N (centres unmarked) [Example 187, 4-{2-Amino-4-[4-fluoro-3-(1,3-thiazol-5-yl)phenyl]-1-methyl-5-oxo-4,5-dihydro-1H-imidazol-4-yl}phenyl trifluoromethanesulfonate hydrochloride] | 459 nM |
| CC(C)S(=O)(=O)Oc1cccc(C2(c3ccc(F)c(-c4cccnc4)c3)N=C(N)N(C)C2=O)c1 (centres unmarked) [Example 105, 3-[2-Amino-4-(4-fluoro-3-pyridin-3-ylphenyl)-1-methyl-5-oxo-4,5-dihydro-1H-imidazol-4-yl]phenylpropane-2-sulfonate] | 343 nM |
| COc1cc(OS(C)(=O)=O)cc(-c2cccc(C3(c4ccc(OC(F)(F)F)cc4)N=C(N)N(C)C3=O)c2)c1 (centres unmarked) [Example 58, 3′-{2-Amino-1-methyl-5-oxo-4-[4-(trifluoromethoxy)phenyl]-4,5-dihydro-1H-imidazol-4-yl}-5-methoxybiphenyl-3-ylmethanesulfonate] | 81 nM |
| COc1ccc(C#N)c(-c2cccc(C3(c4cccc(OS(C)(=O)=O)c4)N=C(N)N(C)C3=O)c2)c1 (centres unmarked) [Example 176, 3-[2-Amino-4-(2′-cyano-5′-methoxybiphenyl-3-yl)-1-methyl-5-oxo-4,5-dihydro-1H-imidazol-4-yl]phenyl methanesulfonate hydrochloride] | 148 nM |
| CN1C(=O)C(c2cccc(OS(C)(=O)=O)c2)(c2ccc(F)c(-c3cc(Cl)cc(Cl)c3)c2)N=C1N (centres unmarked) [Example 89, 3-[2-Amino-4-(3′,5′-dichloro-6-fluorobiphenyl-3-yl)-1-methyl-5-oxo-4,5-dihydro-1H-imidazol-4-yl]phenyl methanesulfonate] | 207 nM |
| CN1C(=O)C(c2cccc(OS(=O)(=O)c3ccc(-n4cccn4)cc3)c2)(c2ccc(F)c(Br)c2)N=C1N (centres unmarked) [Example 227, 3-[2-Amino-4-(3-bromo-4-fluorophenyl)-1-methyl-5-oxo-4,5-dihydro-1H-imidazol-4-yl]phenyl 4-(1H-pyrazol-1-yl)benzenesulfonate] | 1460 nM |
| CN1C(=O)C(c2ccc(OS(C)(=O)=O)cc2)(c2ccc(F)c(-c3cncs3)c2)N=C1N (centres unmarked) [Example 188, 4-{2-Amino-4-[4-fluoro-3-(1,3-thiazol-5-yl)phenyl]-1-methyl-5-oxo-4,5-dihydro-1H-imidazol-4-yl}phenyl methanesulfonate hydrochloride] | 379 nM |
| CCCS(=O)(=O)Oc1cccc(C2(c3ccc(F)c(-c4cccnc4)c3)N=C(N)N(C)C2=O)c1 (centres unmarked) [Example 97, 3-[2-Amino-4-(4-fluoro-3-pyridin-3-ylphenyl)-1-methyl-5-oxo-4,5-dihydro-1H-imidazol-4-yl]phenylpropane-1-sulfonate] | 236 nM |
| COc1cccc(-c2ccnc(C3(c4ccc(OS(C)(=O)=O)cc4)N=C(N)N(C)C3=O)c2)c1 (centres unmarked) [Example 296, 4-{2-Amino-4-[4-(3-methoxyphenyl)pyridin-2-yl]-1-methyl-5-oxo-4,5-dihydro-1H-imidazol-4-yl}phenyl methanesulfonate 0.25 acetate] | 1350 nM |
| CCN1C(=O)C(c2ccc(OS(C)(=O)=O)cc2)(c2ccc(F)c(-c3cc(Cl)cc(Cl)c3)c2)N=C1N (centres unmarked) [Example 161, 4-[2-Amino-4-(3′,5′-dichloro-6-fluorobiphenyl-3-yl)-1-ethyl-5-oxo-4,5-dihydro-1H-imidazol-4-yl]phenyl methanesulfonate] | 1680 nM |
| COc1cc(OS(C)(=O)=O)cc(-c2cccc(C3(c4ccnc(Cl)c4)N=C(N)N(C)C3=O)c2)c1 (centres unmarked) [Example 312, 2-Amino-5-(2-chloropyridin-4-yl)-5-[3-(3-methoxy-5-methylsulfonyloxy-phenyl)phenyl]-3-methyl-imidazol-4-one hydrochloride] | 26 nM |
| CCc1cc(C2(c3ccc(F)c(-c4cc(Cl)cc(OS(C)(=O)=O)c4)c3)N=C(N)N(C)C2=O)cc(CC)n1 (centres unmarked) [Example 210, 5′-[2-Amino-4-(2,6-diethylpyridin-4-yl)-1-methyl-5-oxo-4,5-dihydro-1H-imidazol-4-yl]-5-chloro-2′-fluorobiphenyl-3-yl methanesulfonate hydrochloride] | 137 nM |
| CN1C(=O)C(c2cccc(OS(=O)(=O)N(C)C)c2)(c2ccc(F)c(-c3cccnc3)c2)N=C1N (centres unmarked) [Example 111, 3-[2-Amino-4-(4-fluoro-3-pyridin-3-ylphenyl)-1-methyl-5-oxo-4,5-dihydro-1H-imidazol-4-yl]phenyldimethylsulfamate] | 93 nM |
| CN1C(=O)C(c2cccc(OS(=O)(=O)c3ccc4c(c3)CCC4)c2)(c2ccc(F)c(Br)c2)N=C1N (centres unmarked) [Example 228, 3-[2-Amino-4-(3-bromo-4-fluorophenyl)-1-methyl-5-oxo-4,5-dihydro-1H-imidazol-4-yl]phenyl indane-5-sulfonate] | 788 nM |
| CCc1cc(C2(c3ccc(F)c(-c4cc(OC)cc(OS(C)(=O)=O)c4)c3)N=C(N)N(C)C2=O)cc(CC)n1 (centres unmarked) [Example 209, 5′-[2-Amino-4-(2,6-diethylpyridin-4-yl)-1-methyl-5-oxo-4,5-dihydro-1H-imidazol-4-yl]-2′-fluoro-5-methoxybiphenyl-3-yl methanesulfonate hydrochloride] | 99 nM |
| CC(C)S(=O)(=O)Oc1cccc(C2(c3ccc(F)c(-c4cc(Cl)cnc4F)c3)N=C(N)N(C)C2=O)c1 (centres unmarked) [Example 103, 3-{2-Amino-4-[3-(5-chloro-2-fluoropyridin-3-yl)-4-fluorophenyl]-1-methyl-5-oxo-4,5-dihydro-1H-imidazol-4-yl}phenyl propane-2-sulfonate] | 227 nM |
| CN1C(=O)C(c2cccc(OS(=O)(=O)N(C)C)c2)(c2ccc(F)c(-c3cc(Cl)cc(Cl)c3)c2)N=C1N (centres unmarked) [Example 113, 3-[2-Amino-4-(3′,5′-dichloro-6-fluorobiphenyl-3-yl)-1-methyl-5-oxo-4,5-dihydro-1H-imidazol-4-yl]phenyl dimethylsulfamate] | 121 nM |

Results, then the molecule that gave them:

| IC50 | SMILES |
| --- | --- |
| 122 nM | Cc1nn(C)c(Cl)c1S(=O)(=O)Oc1ccc(C2(c3ccc(F)c(-c4cccnc4)c3)N=C(N)N(C)C2=O)cc1 (centres unmarked) [Example 285, 4-[2-Amino-4-(4-fluoro-3-pyridin-3-ylphenyl)-1-methyl-5-oxo-4,5-dihydro-1H-imidazol-4-yl]phenyl 5-chloro-1,3-dimethyl-1H-pyrazole-4-sulfonate 0.25 acetate] |
| 183 nM | CCC(C)(C)c1ccc(S(=O)(=O)Oc2ccc(C3(c4ccc(F)c(-c5cncnc5)c4)N=C(N)N(C)C3=O)cc2)cc1 (centres unmarked) [Example 276, 4-[2-Amino-4-(4-fluoro-3-pyrimidin-5-ylphenyl)-1-methyl-5-oxo-4,5-dihydro-1H-imidazol-4-yl]phenyl 4-(1,1-dimethylpropyl)benzenesulfonate] |
| 40 nM | COc1cncc(-c2cc(C3(c4ccc(OS(=O)(=O)C(F)(F)F)cc4)N=C(N)N(C)C3=O)ccc2F)c1 (centres unmarked) [Example 148, 4-{2-Amino-4-[4-fluoro-3-(5-methoxypyridin-3-yl)phenyl]-1-methyl-5-oxo-4,5-dihydro-1H-imidazol-4-yl}phenyl trifluoromethanesulfonate 0.5 acetate] |
| 65 nM | CN1C(=O)C(c2cccc(OS(=O)(=O)c3c(F)cccc3F)c2)(c2ccc(F)c(-c3cncnc3)c2)N=C1N (centres unmarked) [Example 236, 3-[2-Amino-4-(4-fluoro-3-pyrimidin-5-ylphenyl)-1-methyl-5-oxo-4,5-dihydro-1H-imidazol-4-yl]phenyl 2,6-difluorobenzenesulfonate] |
| 183 nM | COc1ccc(OC)c(S(=O)(=O)Oc2ccc(C3(c4ccc(F)c(-c5cncnc5)c4)N=C(N)N(C)C3=O)cc2)c1 (centres unmarked) [Example 277, 4-[2-Amino-4-(4-fluoro-3-pyrimidin-5-ylphenyl)-1-methyl-5-oxo-4,5-dihydro-1H-imidazol-4-yl]phenyl 2,5-dimethoxybenzenesulfonate] |
| 31 nM | CN1C(=O)C(c2cccc(OS(=O)(=O)c3ccc(Cl)s3)c2)(c2ccc(F)c(-c3cncnc3)c2)N=C1N (centres unmarked) [Example 242, 3-[2-Amino-4-(4-fluoro-3-pyrimidin-5-ylphenyl)-1-methyl-5-oxo-4,5-dihydro-1H-imidazol-4-yl]phenyl-5-chlorothiophene-2-sulfonate] |
| 321 nM | CN1C(=O)C(c2ccc(OS(=O)(=O)C(F)(F)F)cc2)(c2ccc(F)c(-c3cncc(C#N)c3)c2)N=C1N (centres unmarked) [Example 144, 4-{2-Amino-4-[3-(5-cyanopyridin-3-yl)-4-fluorophenyl]-1-methyl-5-oxo-4,5-dihydro-1H-imidazol-4-yl}phenyl trifluoromethanesulfonate 0.5 acetate] |
| 35 nM | CCCS(=O)(=O)Oc1ccc(C2(c3ccc(F)c(-c4cncc(OC)c4)c3)N=C(N)N(C)C2=O)cc1 (centres unmarked) [Example 129, 4-{2-Amino-4-[4-fluoro-3-(5-methoxypyridin-3-yl)phenyl]-1-methyl-5-oxo-4,5-dihydro-1H-imidazol-4-yl}phenyl propane-1-sulfonate hydrochloride] |
| 26 nM | CN1C(=O)C(c2cccc(OS(=O)(=O)c3cn(C)cn3)c2)(c2ccc(F)c(-c3cncnc3)c2)N=C1N (centres unmarked) [Example 243, 3-[2-Amino-4-(4-fluoro-3-pyrimidin-5-ylphenyl)-1-methyl-5-oxo-4,5-dihydro-1H-imidazol-4-yl]phenyl 1-methyl-1H-imidazole-4-sulfonate] |
